Data taken from ChEMBL document CHEMBL1201861, “Genomics of Drug Sensitity in Cancer screening data, Wellcome Trust Sanger Institute”.

Assays:
Test in all cases: cells
Format in all cases: functional, cell-based, Homo sapiens
SK-MES-1 = settings: Homo sapiens, SK-MES-1;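 note: growth inhibition of human SK-MES-1 cells, read out with a cell viability assay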
Description: SANGER: Inhibition of human SK-MES-1 cell growth in a cell viability assay.

NCI-H2052 = settings: Homo sapiens, NCI-H2052;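 note: growth inhibition of NCI-H2052 cells, read out with a cell viability assay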
Description: SANGER: Inhibition of human NCI-H2052 cell growth in a cell viability assay.

YKG-1 = settings: Homo sapiens, YKG-1;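 note: cell growth inhibition, read out with a viability assay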
Description: SANGER: Inhibition of human YKG-1 cell growth in a cell viability assay.

SK-LU-1 = settings: Homo sapiens, SK-LU-1;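 note: cell viability assay measuring growth inhibition of human SK-LU-1 cells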
Description: SANGER: Inhibition of human SK-LU-1 cell growth in a cell viability assay.

A2780 = settings: Homo sapiens, A2780;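 note: growth inhibition of A2780 cells, read out with a cell viability assay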
Description: SANGER: Inhibition of human A2780 cell growth in a cell viability assay.

NY = settings: Homo sapiens, NY
Description: SANGER: Inhibition of human NY cell growth in a cell viability assay.

A 172 = settings: Homo sapiens, A 172;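 note: growth inhibition of A172 cells, measured with a cell viability readout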
Description: SANGER: Inhibition of human A172 cell growth in a cell viability assay.

AU565 = settings: Homo sapiens, AU565;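 note: cell viability assay measuring growth inhibition of human AU565 cells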
Description: SANGER: Inhibition of human AU565 cell growth in a cell viability assay.

G-361 = settings: Homo sapiens, G-361
SW1463 = settings: Homo sapiens, SW1463;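 note: growth inhibition of SW1463 cells, determined with a cell viability assay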
Description: SANGER: Inhibition of human SW1463 cell growth in a cell viability assay.

HEC-1 = settings: Homo sapiens, HEC-1;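 note: growth inhibition of the cell line, read out with a cell viability assay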
Description: SANGER: Inhibition of human HEC-1 cell growth in a cell viability assay.

HT-3 = settings: Homo sapiens, HT-3;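 note: growth inhibition measured with a cell viability readout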
Description: SANGER: Inhibition of human HT-3 cell growth in a cell viability assay.

RPMI-7951 = settings: Homo sapiens, RPMI-7951
Description: SANGER: Inhibition of human RPMI-7951 cell growth in a cell viability assay.

HSC-3 = settings: Homo sapiens, HSC-3
Description: SANGER: Inhibition of human HSC-3 cell growth in a cell viability assay.

RMG-I = settings: Homo sapiens, RMG-I;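 note: growth inhibition of human RMG-I cells, read out with a cell viability assay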
Description: SANGER: Inhibition of human RMG-I cell growth in a cell viability assay.

WM-115 = settings: Homo sapiens, WM-115
Description: SANGER: Inhibition of human WM-115 cell growth in a cell viability assay.

LoVo = settings: Homo sapiens, LoVo;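 note: growth inhibition of human LoVo cells, read out with a cell viability assay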
Description: SANGER: Inhibition of human LoVo cell growth in a cell viability assay.

HT-29 = settings: Homo sapiens, HT-29;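 note: growth inhibition of human HT-29 cells, read out by a cell viability assay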
Description: SANGER: Inhibition of human HT-29 cell growth in a cell viability assay.

HT-1080 = settings: Homo sapiens, HT-1080
Description: SANGER: Inhibition of human HT-1080 cell growth in a cell viability assay.

BHT-101 = settings: Homo sapiens, BHT-101
Description: SANGER: Inhibition of human BHT-101 cell growth in a cell viability assay.

DOK = settings: Homo sapiens, DOK;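 note: cell viability assay read-out, values reflect inhibition of cell growth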
Description: SANGER: Inhibition of human DOK cell growth in a cell viability assay.

EFM-19 = settings: Homo sapiens, EFM-19;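 note: growth inhibition of human EFM-19 cells, measured in a cell viability assay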
Description: SANGER: Inhibition of human EFM-19 cell growth in a cell viability assay.

HCC1806 = settings: Homo sapiens, HCC1806;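 note: growth inhibition of the cancer cell line, determined with a cell viability assay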
Description: SANGER: Inhibition of human HCC1806 cell growth in a cell viability assay.

HO-1-N-1 = settings: Homo sapiens, HO-1-N-1;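 note: growth inhibition of human HO-1-N-1 cells, read out with a cell viability assay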
Description: SANGER: Inhibition of human HO-1-N-1 cell growth in a cell viability assay.

J82 = settings: Homo sapiens, J82;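 note: growth inhibition of J82 cells, read out with a cell viability assay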
Description: SANGER: Inhibition of human J82 cell growth in a cell viability assay.

SCC-25 = settings: Homo sapiens, SCC-25;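 note: growth inhibition of SCC-25 cells, measured with a cell viability assay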
Description: SANGER: Inhibition of human SCC-25 cell growth in a cell viability assay.

HSC-2 = settings: Homo sapiens, HSC-2;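 note: growth inhibition of human HSC-2 cells, read out by a cell viability assay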
Description: SANGER: Inhibition of human HSC-2 cell growth in a cell viability assay.

KYSE-270 = settings: Homo sapiens, KYSE-270;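 note: cell growth inhibition measured with a viability assay in the human KYSE-270 line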
Description: SANGER: Inhibition of human KYSE-270 cell growth in a cell viability assay.

NCI-H1623 = settings: Homo sapiens, NCI-H1623;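 note: cell viability assay used as the read-out for growth inhibition of NCI-H1623 cells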
Description: SANGER: Inhibition of human NCI-H1623 cell growth in a cell viability assay.

PFSK-1 = settings: Homo sapiens, PFSK-1;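 note: cell viability assay measuring how strongly compounds suppress growth of human PFSK-1 cells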
Description: SANGER: Inhibition of human PFSK-1 cell growth in a cell viability assay.

LCLC-103H cell line = settings: Homo sapiens, LCLC-103H
Description: SANGER: Inhibition of human LCLC-103H cell growth in a cell viability assay.

LK-2 = settings: Homo sapiens, LK-2;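 note: growth inhibition of LK-2 cells, read out with a viability assay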
Description: SANGER: Inhibition of human LK-2 cell growth in a cell viability assay.

HCC38 = settings: Homo sapiens, HCC38;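 note: cell viability assay on the human HCC38 cell line, with IC50 marking the concentration that inhibits cell growth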
Description: SANGER: Inhibition of human HCC38 cell growth in a cell viability assay.

BT-20 = settings: Homo sapiens, BT-20;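 note: cell viability assay measuring suppression of growth in human BT-20 cells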
Description: SANGER: Inhibition of human BT-20 cell growth in a cell viability assay.

NCI-H661 = settings: Homo sapiens, NCI-H661;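 note: cell viability assay read-out, IC50 being the concentration that inhibits growth of the cells by half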
Description: SANGER: Inhibition of human NCI-H661 cell growth in a cell viability assay.

786-0 = settings: Homo sapiens
Description: SANGER: Inhibition of human 786-0 cell growth in a cell viability assay.

C-33-A = settings: Homo sapiens, C-33-A;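 note: cell viability assay measuring growth inhibition of C-33-A cells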
Description: SANGER: Inhibition of human C-33-A cell growth in a cell viability assay.

SW13 = settings: Homo sapiens, SW13;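 note: IC50 is inhibition of SW13 cell growth, read out with a cell viability assay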
Description: SANGER: Inhibition of human SW13 cell growth in a cell viability assay.

CAL-62 = settings: Homo sapiens, CAL-62;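 note: growth inhibition of CAL-62 cells, read out with a cell viability assay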
Description: SANGER: Inhibition of human CAL-62 cell growth in a cell viability assay.

EPLC-272H = settings: Homo sapiens, EPLC-272H
Description: SANGER: Inhibition of human EPLC-272H cell growth in a cell viability assay.

Row | SMILES | IC50 (SK-MES-1) [µM] | IC50 (NCI-H2052) [µM] | IC50 (YKG-1) [nM] | IC50 (SK-LU-1) [µM] | IC50 (A2780) [µM] | IC50 (NY) [µM] | IC50 (A 172) [nM] | IC50 (AU565) [µM] | IC50 (G-361) [nM] | IC50 (SW1463) [µM] | IC50 (HEC-1) [µM] | IC50 (HT-3) [nM] | IC50 (RPMI-7951) [µM] | IC50 (HSC-3) [nM] | IC50 (RMG-I) [µM] | IC50 (WM-115) [µM] | IC50 (LoVo) [nM] | IC50 (HT-29) [µM] | IC50 (HT-1080) [µM] | IC50 (BHT-101) [µM] | further results
1 | Cc1cn(-c2cc(NC(=O)c3ccc(C)c(Nc4nccc(-c5cccnc5)n4)c3)cc(C(F)(F)F)c2)cn1 [NILOTINIB] | > 2 | > 2 | > 2000 | > 2 | > 2 | > 2 | > 2000 | > 2 | > 2000 | > 2 | > 2 | > 2000 | > 2 | > 2000 | > 2 | > 2 | > 2000 | > 2 | > 2 | 0.643 | IC50 (DOK): > 2 µM; IC50 (EFM-19): > 2 µM; IC50 (HCC1806): > 2 µM; IC50 (HO-1-N-1): > 2 µM; IC50 (J82): > 2 µM; IC50 (SCC-25): > 2 µM; IC50 (HSC-2): > 2 µM; IC50 (KYSE-270): > 2 µM; IC50 (NCI-H1623): > 2 µM; IC50 (PFSK-1): > 2 µM; IC50 (LCLC-103H cell line): > 2 µM; IC50 (LK-2): > 2 µM; IC50 (HCC38): > 2 µM; IC50 (BT-20): > 2 µM; IC50 (NCI-H661): > 2 µM; IC50 (786-0): > 2 µM; IC50 (C-33-A): > 2 µM; IC50 (SW13): > 2 µM; IC50 (CAL-62): > 2000 nM; IC50 (EPLC-272H): > 2 µM
2 | CC(C)CCN1c2nc(Nc3cc(F)c(O)c(F)c3)ncc2N(C)C(=O)C1C (stereo not given) | 3.73 | > 5 | 1980 | > 5 | > 5 | > 5 | 517 | > 5 | 2120 | > 5 | > 5 | 2510 | 3.4 | 818 | > 5 | > 5 | 1470 | > 5 | > 5 | 4.11 | IC50 (DOK): 3.77 µM; IC50 (EFM-19): > 5 µM; IC50 (HCC1806): > 5 µM; IC50 (HO-1-N-1): 3.8 µM; IC50 (J82): > 5 µM; IC50 (SCC-25): > 5 µM; IC50 (HSC-2): > 5 µM; IC50 (KYSE-270): > 5 µM; IC50 (NCI-H1623): > 5 µM; IC50 (PFSK-1): > 5 µM; IC50 (LCLC-103H cell line): > 5 µM; IC50 (LK-2): > 5 µM; IC50 (HCC38): > 5 µM; IC50 (BT-20): > 5 µM; IC50 (NCI-H661): > 5 µM; IC50 (786-0): > 5 µM; IC50 (C-33-A): > 5 µM; IC50 (SW13): > 5 µM; IC50 (CAL-62): 882 nM; IC50 (EPLC-272H): 4.18 µM
3 | CS(=O)(=O)c1ccc(C(=O)Nc2ccc(Cl)c(-c3ccccn3)c2)c(Cl)c1 [VISMODEGIB] | > 10 | > 10 | > 10000 | > 10 | > 10 | > 10 | > 10000 | > 10 | > 10000 | > 10 | > 10 | > 10000 | > 10 | > 10000 | > 10 | > 10 | > 10000 | > 10 | > 10 | > 10 | IC50 (DOK): > 10 µM; IC50 (EFM-19): > 10 µM; IC50 (HCC1806): > 10 µM; IC50 (HO-1-N-1): > 10 µM; IC50 (J82): > 10 µM; IC50 (SCC-25): > 10 µM; IC50 (HSC-2): > 10 µM; IC50 (KYSE-270): > 10 µM; IC50 (NCI-H1623): > 10 µM; IC50 (PFSK-1): > 10 µM; IC50 (LCLC-103H cell line): > 10 µM; IC50 (LK-2): > 10 µM; IC50 (HCC38): > 10 µM; IC50 (BT-20): > 10 µM; IC50 (NCI-H661): > 10 µM; IC50 (786-0): > 10 µM; IC50 (C-33-A): > 10 µM; IC50 (SW13): > 10 µM; IC50 (CAL-62): > 10000 nM; IC50 (EPLC-272H): > 10 µM
